Results taken from patent US12036190B2, “Methods and compositions for the treatment of cytoplasmic glycogen storage disorders” (Duke University, priority 2015, dated 2024).
“Also recorded” adds a separate entry of the source. Read-outs that look alike come from different tables or passages of the source.

How the values were obtained:
[1] = test system: G6pc siRNA knockdown AML-12 cells; settings: for Lipid Reduction Scoring, High dose / Lipid Reduction Scoring, Medium dose / Lipid Reduction Scoring, Low dose: Oil Red O, duplicate; for Lipid Reduction Scoring, Medium dose: medium concentration of Table 6; for Lipid Reduction Scoring, Low dose: low concentration of Table 6
Excerpt: In brief, a wide array of drugs was selected, including those that modulate autophagy via the […] pathway, those that do so through AMPK modulation to act through mTORC1, and those using yet-undetermined pathways. Analysis of additional literature led to the selection of three concentrations of each compound to be tested in cell culture using the G6pc siRNA knockdown AML-12 mouse hepatocyte cell line model of GSD Ia as an initial screen for the drugs.
Drug concentrations were chosen based on similarity to published concentrations in either cell culture models resulting in target effects or autophagy, or in vivo extracellular fluid concentrations following animal treatments. The latter case is noted with the fluid type. Concentrations used in our in vitro AML-12 cell culture treatments are listed as the low, medium, and high concentrations that were screened.
The first test using AML-12 cells was the Oil Red 0 stain to examine the presence of lipid vacuoles in cells given the treatments.
G6pc siRNA knockdown AML-12 cells were given three different doses of each drug treatment. After 72 hours of growth, the media was changed to ketogenic media and appropriate quantities of each drug were added. This was performed in duplicate. Oil Red 0 staining was then performed and bright field images acquired at 10× magnification.
Drug treatments at three doses each were performed on G6pc siRNA knockdown AML-12 cells. Following oil red 0 staining the whole plates were evaluated visually for reductions in lipid accumulation. Treatments were performed in duplicate. —/0/+/++/+++ indicates the degree of improvement, or lipid reduction, caused by the treatment, with + indicating positive benefits.

G6pc−/− knockout mice = assay: Bezafibrate treatment of G6pc−/− mice; format: in vivo
Description: G6pc−/− knockout mice were administered intraperitoneal injections of bezafibrate 25 mg/kg/day suspended in 10% DMSO/90% PBS IP for 3 days.

HepG2 cells = assay: LC3-II in HepG2 cells after clenbuterol; format: cell-based
Excerpt: (§1) Asterisk indicates p<0.05.
(§2) Thus, clenbuterol, a long-acting β-agonist with proven safety for long-term treatment of mice, represents a leading candidate among drugs to be considered for the manipulation of autophagy in GSD Ia (Table 2).

[2] = test system: mouse primary hepatocytes; assay: LC3-II in mouse primary hepatocytes after clenbuterol; format: cell-based; settings: 24 hours
Excerpt: as §1, §2

[3] = test system: murine model for hepatosteatosis; format: in vivo, mouse
GAA knockout (KO) mice = assay: β2 agonist with ERT (rhGAA) in GAA-KO mice with Pompe disease; settings: for CI-MPR (M6PR) expression: muscle; for glycogen content in skeletal muscle: β2 agonist added to ERT, versus ERT alone
autophagy = settings: Table 4; drugs known to enhance autophagy; cited from earlier work
[4] = test system: patients with late-onset Pompe disease; settings: adjunctive to ERT; cited from earlier work
[5] = test system: G6pc knockdown AML-12 cells; assay: LC3 Western blot of drug-treated G6pc knockdown AML-12 cells; format: cell-based, mouse; settings: 24 hours; conditions with optimal effects in the Oil Red O screen
Description: FIG. 27 illustrates LC3 Western blot of drug-treated G6pc knockdown AML-12 cells. Western blotting was performed on AML-12 cells incubated for 24 hours with the described drug conditions. LC3 was quantified and normalized against each condition's β-actin protein quantification.
In addition to Oil Red O staining, cells were analyzed via Western blots for restored LC3 expression for each drug, under the conditions that had optimal effects in the Oil Red O screen (FIG. 27). Since the Western antibody previously used successfully for rapamycin treatment LC3 blots had been discontinued by the manufacturer, we tested two alternative antibodies and chose the one from Cell Signaling Technologies because it gave the strongest signal-to-noise ratio under our experimental conditions.
Western blotting was performed on AML-12 cells incubated for 24 hours with the described drug conditions. LC3 was quantified and normalized against each condition's β-actin protein quantification.

| Compound | Lipid Reduction Scoring, High dose ([1]; high concentration of Table 6) | Lipid Reduction Scoring, Medium dose [1] | Lipid Reduction Scoring, Low dose [1] | Effect (autophagy) | also measured |
| --- | --- | --- | --- | --- | --- |
| CC(C)(Oc1ccc(CCNC(=O)c2ccc(Cl)cc2)cc1)C(=O)O [Bezafibrate, bezafibrate] | ++ | + |  |  | kidney weight as a percentage of total body weight (G6pc−/− knockout mice; bezafibrate 25 mg/kg/day IP, p<0.046): very small but quantitatively significant increase; blood glucose level (G6pc−/− knockout mice; bezafibrate-treated affected mice, below threshold of detection): < 20 mg/dL |
| CC(C)(C)NCC(O)c1cc(Cl)c(N)c(Cl)c1 (centres unmarked) [Clenbuterol, clenbuterol] |  |  |  |  | lowest concentration at which LC3-II is increased (HepG2 cells; 24 hours): 300 nM; LC3-II (HepG2 cells; 24 hours after addition): increases LC3-II; LC3-II [2]: increases LC3-II; autophagy ([3]; murine model for hepatosteatosis): induce autophagy; hepatosteatosis ([3]; preclinical experiments): reduced hepatosteatosis; muscle hypertrophy (GAA knockout (KO) mice; GAA-KO mice): induce muscle hypertrophy; CI-MPR (M6PR) expression (GAA knockout (KO) mice; GAA-KO mice): enhance CI-MPR expression; CI-MPR (M6PR) expression (GAA knockout (KO) mice; GAA-KO mice, listed as clenbuterol): increase the expression of CI-MPR; also recorded: increased CI-MPR expression; also recorded: enhancing M6PR expression; uptake of rhGAA (GAA knockout (KO) mice; preclinical experiments): increased the uptake of rhGAA; glycogen content in skeletal muscle (GAA knockout (KO) mice): lower glycogen content; also recorded: decreased glycogen storage |
| CN(C)c1ccc2nc3ccc(=[N+](C)C)cc-3sc2c1 [Methylene Blue, Methylene blue] | − − − | − − | + | Activated autophagy, inhibited hepatosteatosis |  |
| CC(C)(C)NCC(O)c1ccc(O)c(CO)c1 (centres unmarked) [Albuterol, albuterol] |  |  |  |  | 6 minute walk test performance [4]: improve the 6 minute walk test performance; glycogen content in skeletal muscle (GAA knockout (KO) mice): lower glycogen content |
| OC[C@H]1O[C@H](O[C@H]2O[C@H](CO)[C@@H](O)[C@H](O)[C@H]2O)[C@H](O)[C@@H](O)[C@@H]1O [Trehalose] |  | − − | + | Stimulated autophagy | cell survival, High dose [1]: High death |
| Thyroid hormone |  |  |  | Increased autophagy, reduced steatosis |  |
| CN(C)C(=N)N=C(N)N [Metformin] | 0 |  | + | Activated autophagy, activated AMPK in vitro |  |
| COc1ccc(CCN(C)CCCC(C#N)(c2ccc(OC)c(OC)c2)C(C)C)cc1OC (centres unmarked) [Verapamil] | − − | + |  | Induced autophagy, reduced cytosolic calcium | cell survival, High dose ([1]; high concentration of Table 6): Very high death |
| CC#C[C@]1(O)CC[C@H]2[C@@H]3CCC4=CC(=O)CCC4=C3[C@@H](c3ccc(N(C)C)cc3)C[C@@]21C [Mifepristone] | ++ | + (Spotty ++) | + | Activated autophagy, inhibited FXR | cell survival, High dose [1]: Great survival; LC3 normalized against β-actin (Western blot) [5]: increase in LC3 autophagic marker |
| O=C(O)CCCCC1CCSS1 (stereo not drawn) [α-Lipoic acid, α-lipoic acid] | 0 |  | + | Activated autophagy, reduced intercellular |  |
| Cc1c(C)c2c(c(C)c1O)CC[C@@](C)(CCC[C@H](C)CCC[C@H](C)CCCC(C)C)O2 [α-Tocopherol] |  | − (Spotty ++) | 0 (Spotty +) |  |  |
| Oc1ccc(C=Cc2cc(O)cc(O)c2)cc1 [Resveratrol] | − − − | 0 (Spotty ++) | + | Enhanced FAO , reduced |  |
